{"source": "patent US20220169628A1", "about": "(University of Florida Research Foundation, Incorporated, priority 2019, published 2022)", "key": {"MOLT-4 cells": {"test_system": "MOLT-4 cells", "assay": "Cell viability assay, MTS, 48 h, MOLT-4", "type": "cell-based", "details": "48 hours, read-out: IC50 (48 hours) MOLT-4", "procedure": "(§1) Acute lymphoblastic leukemia cells (MOLT-4 and RS4; 11) or small cell lung cancer (NCI-H146 or simply H146) were incubated with increasing concentrations of Bcl-xL degraders for 48 h. Cell viability was measured by tetrazolium-based MTS assay."}, "RS4;11 cells": {"test_system": "RS4;11 cells", "assay": "Cell viability assay, MTS, 48 h, RS4;11", "type": "cell-based", "details": "48 hours, read-out: IC50 (48 hours) RS4;11", "procedure": "as §1"}}, "note": "Read-outs that look alike come from different tables or passages of the source.", "data": [{"smiles": "Cc1ncsc1-c1ccc([C@H](C)NC(=O)[C@@H]2C[C@@H](O)CN2C(=O)[C@@H](NC(=O)CCCN2CCN(CC3(C)CCC(c4ccc(Cl)cc4)=C(CN4CCN(c5ccc(C(=O)NS(=O)(=O)c6ccc(N[C@H](CCN7CCOCC7)CSc7ccccc7)c(S(=O)(=O)C(F)(F)F)c6)cc5)CC4)C3)CC2)C(C)(C)C)cc1", "note": "(stereo partly drawn) [compound 68, (2S,4R)-1-((2S)-2-(4-(4-((4′-chloro-4-methyl-6-((4-(4-(((4-(((R)-4-morpholino-1-(phenylthio)butan-2-yl)amino)-3-((trifluoromethyl)sulfonyl)phenyl)sulfonyl)carbamoyl)phenyl)piperazin-1-yl)methyl)-2,3,4,5-tetrahydro-[1,1′-biphenyl]-4-yl)methyl)piperazin-1-yl)butanamido)-3,3-dimethylbutanoyl)-4-hydroxy-N—((S)-1-(4-(4-methylthiazol-5-yl)phenyl)ethyl)pyrrolidine-2-carboxamide]", "values": [{"measurement": "IC50", "setting": "MOLT-4 cells; Homo sapiens, MOLT-4, 48 h", "value": "> 500", "unit": "nM"}, {"measurement": "IC50", "setting": "RS4;11 cells; Homo sapiens, RS4-11, 48 h", "value": "150 to 500", "unit": "nM"}]}, {"smiles": "Cc1ncsc1-c1ccc([C@H](C)NC(=O)[C@@H]2C[C@@H](O)CN2C(=O)[C@@H](NC(=O)CCCCCN2CCN(CC3(C)CCC(c4ccc(Cl)cc4)=C(CN4CCN(c5ccc(C(=O)NS(=O)(=O)c6ccc(N[C@H](CCN7CCOCC7)CSc7ccccc7)c(S(=O)(=O)C(F)(F)F)c6)cc5)CC4)C3)CC2)C(C)(C)C)cc1", "note": "(stereo partly drawn) [compound 69, (2S,4R)-1-((2S)-2-(6-(4-((4′-chloro-4-methyl-6-((4-(4-(((4-(((R)-4-morpholino-1-(phenylthio)butan-2-yl)amino)-3-((trifluoromethyl)sulfonyl)phenyl)sulfonyl)carbamoyl)phenyl)piperazin-1-yl)methyl)-2,3,4,5-tetrahydro-[1,1′-biphenyl]-4-yl)methyl)piperazin-1-yl)hexanamido)-3,3-dimethylbutanoyl)-4-hydroxy-N—((S)-1-(4-(4-methylthiazol-5-yl)phenyl)ethyl)pyrrolidine-2-carboxamide]", "values": [{"measurement": "IC50", "setting": "MOLT-4 cells", "value": "50 to 150", "unit": "nM"}, {"measurement": "IC50", "setting": "RS4;11 cells", "value": "50 to 150", "unit": "nM"}]}, {"smiles": "CC1(CNC(=O)CCCCNc2cccc3c2C(=O)N(C2CCC(=O)NC2=O)C3=O)CCC(c2ccc(Cl)cc2)=C(CN2CCN(c3ccc(C(=O)NS(=O)(=O)c4ccc(N[C@H](CCN5CCOCC5)CSc5ccccc5)c(S(=O)(=O)C(F)(F)F)c4)cc3)CC2)C1", "note": "(stereo partly drawn) [compound 70, 4-(4-((4′-chloro-4-((5-((2-(2,6-dioxopiperidin-3-yl)-1,3-dioxoisoindolin-4-yl)amino)pentanamido)methyl)-4-methyl-3,4,5,6-tetrahydro-[1,1′-biphenyl]-2-yl)methyl)piperazin-1-yl)-N-((4-(((R)-4-morpholino-1-(phenylthio)butan-2-yl)amino)-3-((trifluoromethyl)sulfonyl)phenyl)sulfonyl)benzamide]", "values": [{"measurement": "IC50", "setting": "MOLT-4 cells; Homo sapiens, MOLT-4, 48 h", "value": "50 to 150", "unit": "nM"}, {"measurement": "IC50", "setting": "RS4;11 cells; Homo sapiens, RS4-11, 48 h", "value": "50 to 150", "unit": "nM"}]}, {"smiles": "CC1(CNC(=O)CCCCCNc2cccc3c2C(=O)N(C2CCC(=O)NC2=O)C3=O)CCC(c2ccc(Cl)cc2)=C(CN2CCN(c3ccc(C(=O)NS(=O)(=O)c4ccc(N[C@H](CCN5CCOCC5)CSc5ccccc5)c(S(=O)(=O)C(F)(F)F)c4)cc3)CC2)C1", "note": "(stereo partly drawn) [compound 71, 4-(4-((4′-chloro-4-((6-((2-(2,6-dioxopiperidin-3-yl)-1,3-dioxoisoindolin-4-yl)amino)hexanamido)methyl)-4-methyl-3,4,5,6-tetrahydro-[1,1′-biphenyl]-2-yl)methyl)piperazin-1-yl)-N-((4-(((R)-4-morpholino-1-(phenylthio)butan-2-yl)amino)-3-((trifluoromethyl)sulfonyl)phenyl)sulfonyl)benzamide]", "values": [{"measurement": "IC50", "setting": "MOLT-4 cells; Homo sapiens, MOLT-4, 48 h", "value": "< 50", "unit": "nM"}, {"measurement": "IC50", "setting": "RS4;11 cells; Homo sapiens, RS4-11, 48 h", "value": "< 50", "unit": "nM"}]}, {"smiles": "CC1(CNC(=O)CCCCCCNc2cccc3c2C(=O)N(C2CCC(=O)NC2=O)C3=O)CCC(c2ccc(Cl)cc2)=C(CN2CCN(c3ccc(C(=O)NS(=O)(=O)c4ccc(N[C@H](CCN5CCOCC5)CSc5ccccc5)c(S(=O)(=O)C(F)(F)F)c4)cc3)CC2)C1", "note": "(stereo partly drawn) [compound 72, 4-(4-((4′-chloro-4-((7-((2-(2,6-dioxopiperidin-3-yl)-1,3-dioxoisoindolin-4-yl)amino)heptanamido)methyl)-4-methyl-3,4,5,6-tetrahydro-[1,1′-biphenyl]-2-yl)methyl)piperazin-1-yl)-N-((4-(((R)-4-morpholino-1-(phenylthio)butan-2-yl)amino)-3-((trifluoromethyl)sulfonyl)phenyl)sulfonyl)benzamide]", "values": [{"measurement": "IC50", "setting": "MOLT-4 cells; Homo sapiens, MOLT-4, 48 h", "value": "< 50", "unit": "nM"}, {"measurement": "IC50", "setting": "RS4;11 cells; Homo sapiens, RS4-11, 48 h", "value": "< 50", "unit": "nM"}]}, {"smiles": "CC1(CNC(=O)CCCCCCCNc2cccc3c2C(=O)N(C2CCC(=O)NC2=O)C3=O)CCC(c2ccc(Cl)cc2)=C(CN2CCN(c3ccc(C(=O)NS(=O)(=O)c4ccc(N[C@H](CCN5CCOCC5)CSc5ccccc5)c(S(=O)(=O)C(F)(F)F)c4)cc3)CC2)C1", "note": "(stereo partly drawn) [compound 73, 4-(4-((4′-chloro-4-((8-((2-(2,6-dioxopiperidin-3-yl)-1,3-dioxoisoindolin-4-yl)amino)octanamido)methyl)-4-methyl-3,4,5,6-tetrahydro-[1,1′-biphenyl]-2-yl)methyl)piperazin-1-yl)-N-((4-(((R)-4-morpholino-1-(phenylthio)butan-2-yl)amino)-3-((trifluoromethyl)sulfonyl)phenyl)sulfonyl)benzamide]", "values": [{"measurement": "IC50", "setting": "MOLT-4 cells; Homo sapiens, MOLT-4, 48 h", "value": "< 50", "unit": "nM"}, {"measurement": "IC50", "setting": "RS4;11 cells; Homo sapiens, RS4-11, 48 h", "value": "< 50", "unit": "nM"}]}, {"smiles": "CC1(CNC(=O)CCCCCCCCNc2cccc3c2C(=O)N(C2CCC(=O)NC2=O)C3=O)CCC(c2ccc(Cl)cc2)=C(CN2CCN(c3ccc(C(=O)NS(=O)(=O)c4ccc(N[C@H](CCN5CCOCC5)CSc5ccccc5)c(S(=O)(=O)C(F)(F)F)c4)cc3)CC2)C1", "note": "(stereo partly drawn) [compound 74, 4-(4-((4′-chloro-4-((9-((2-(2,6-dioxopiperidin-3-yl)-1,3-dioxoisoindolin-4-yl)amino)nonanamido)methyl)-4-methyl-3,4,5,6-tetrahydro-[1,1′-biphenyl]-2-yl)methyl)piperazin-1-yl)-N-((4-(((R)-4-morpholino-1-(phenylthio)butan-2-yl)amino)-3-((trifluoromethyl)sulfonyl)phenyl)sulfonyl)benzamide]", "values": [{"measurement": "IC50", "setting": "MOLT-4 cells; Homo sapiens, MOLT-4, 48 h", "value": "< 50", "unit": "nM"}, {"measurement": "IC50", "setting": "RS4;11 cells; Homo sapiens, RS4-11, 48 h", "value": "50 to 150", "unit": "nM"}]}, {"smiles": "CC1(CNC(=O)CCCCCCCCCCNc2cccc3c2C(=O)N(C2CCC(=O)NC2=O)C3=O)CCC(c2ccc(Cl)cc2)=C(CN2CCN(c3ccc(C(=O)NS(=O)(=O)c4ccc(N[C@H](CCN5CCOCC5)CSc5ccccc5)c(S(=O)(=O)C(F)(F)F)c4)cc3)CC2)C1", "note": "(stereo partly drawn) [compound 75, 4-(4-((4′-chloro-4-((11-((2-(2,6-dioxopiperidin-3-yl)-1,3-dioxoisoindolin-4-yl)amino)undecanamido)methyl)-4-methyl-3,4,5,6-tetrahydro-[1,1′-biphenyl]-2-yl)methyl)piperazin-1-yl)-N-((4-(((R)-4-morpholino-1-(phenylthio)butan-2-yl)amino)-3-((trifluoromethyl)sulfonyl)phenyl)sulfonyl)benzamide]", "values": [{"measurement": "IC50", "setting": "MOLT-4 cells; Homo sapiens, MOLT-4, 48 h", "value": "50 to 150", "unit": "nM"}, {"measurement": "IC50", "setting": "RS4;11 cells; Homo sapiens, RS4-11, 48 h", "value": "150 to 500", "unit": "nM"}]}, {"smiles": "CC1(CNC(=O)COCCNc2cccc3c2C(=O)N(C2CCC(=O)NC2=O)C3=O)CCC(c2ccc(Cl)cc2)=C(CN2CCN(c3ccc(C(=O)NS(=O)(=O)c4ccc(N[C@H](CCN5CCOCC5)CSc5ccccc5)c(S(=O)(=O)C(F)(F)F)c4)cc3)CC2)C1", "note": "(stereo partly drawn) [compound 76, 4-(4-((4′-chloro-4-((2-(2-((2-(2,6-dioxopiperidin-3-yl)-1,3-dioxoisoindolin-4-yl)amino)ethoxy)acetamido)methyl)-4-methyl-3,4,5,6-tetrahydro-[1,1′-biphenyl]-2-yl)methyl)piperazin-1-yl)-N-((4-(((R)-4-morpholino-1-(phenylthio)butan-2-yl)amino)-3-((trifluoromethyl)sulfonyl)phenyl)sulfonyl)benzamide]", "values": [{"measurement": "IC50", "setting": "MOLT-4 cells; Homo sapiens, MOLT-4, 48 h", "value": "50 to 150", "unit": "nM"}, {"measurement": "IC50", "setting": "RS4;11 cells; Homo sapiens, RS4-11, 48 h", "value": "50 to 150", "unit": "nM"}]}]}
